The values below come from paper PMC5635026, “Homo-PROTACs: bivalent small-molecule dimerizers of the VHL E3 ubiquitin ligase to induce self-degradation” (Nature Communications, 2017).

Each structure is given as a SMILES string.

For one assay, the target named is T1, V19CB (Homo sapiens, UniProt P40337).
T1 construct: made in house
In words: Size-exclusion chromatography (SEC) of complex formation with V19CB. The assay is classed as binding. The conditions noted are these: compound 30 µM; for shift of VCB peak / ternary complex formation in SEC: VCB 50 µM. The protocol: Protein expression and purification. Human proteins VHL (UniProt accession number: P40337), ElonginC (Q15369), and ElonginB (Q15370) were used for all protein expression. The short-isoform-containing VCB complex (V19CB) was expressed, purified and stored as described previously. For expression of the long-isoform-containing VCB complex (V30CB), N-terminally His6-tagged VHL (1–213), ElonginC (17–112) and ElonginB (1–104) were co-expressed in Escherichia coli BL21(DE3) at 20 °C for 18 h using 0.5 mM isopropyl β-D-1-thiogalactopyranoside (IPTG). E. coli cells were resuspended in binding buffer (50 mM HEPES, pH 8.0, 500 mM NaCl, 10 mM imidazole and 5 mM β-mercaptoethanol), lysed using a pressure cell homogenizer (Stansted Fluid Power), and lysate clarified by centrifugation. The supernatant was loaded onto a HisTrap FF affinity column (GE Healthcare) equilibrated with binding buffer, and bound protein was eluted using an imidazole gradient. The His6 tag was removed using thrombin protease (Sigma), and the untagged complex was dialyzed into binding buffer. V30CB was then loaded onto the HisTrap FF column a second time, allowing impurities to bind as the complex eluted without binding. The flow-through was dialyzed using a low-salt buffer (20 mM HEPES, pH 8.0, 25 mM NaCl and 1 mM DTT) and then loaded onto a Resource Q anion exchange column (GE Healthcare); bound protein was eluted across a linear NaCl gradient. V30CB was then additionally purified by size-exclusion chromatography using a Superdex-75 16/600 column (GE Healthcare) equilibrated with 20 mM HEPES, pH 7.5, 100 mM sodium chloride and 1 mM TCEP. All chromatography purification steps were performed using Äkta FPLC purification systems (GE Healthcare).
Size-exclusion chromatography (SEC). SEC experiments were carried out in a ÄKTA pure system (GE Healthcare) at room temperature. The oligomeric state of the VCB complex in solution was analyzed by gel filtration in a buffer containing 20 mM Bis-Tris (pH 7), 150 mM NaCl and 1 mM 1,4-dithiothreitol (DTT) using a Superdex 200 Increase 10/300 GL column (GE Healthcare) calibrated with globular proteins of known molecular weight (GE Healthcare, 28-4038-41/42). […] Sample volume for each injection was 200 µl, and the flow rate was 0.5 ml min^−1. Peak elution was monitored using ultraviolet absorbance at 280 nm.
(In general: In gel filtration, larger molecules generally elute earlier.)

A further assay concerns Alsin (ALS2). In words: TMT MS proteomics in HeLa cells, ALS2 abundance. The assay is classed as cell-based, Homo sapiens. Conditions: 1 µM, 10 h, two replicates. The protocol: MS proteomics. Sample preparation. HeLa cells were seeded at 5 × 10^6 on a 10 cm plate 16 h before treatment. […] Cells were incubated at 37 °C and 5% CO2 for 10 h before harvesting. Cells were placed on ice and medium was removed and cells were washed twice with cold PBS. Cells were lysed in 0.5 ml of 100 mM Tris pH 8.0, 4% (w/v) SDS supplemented with protease inhibitor cocktail (Roche). The lysate was pulse sonicated briefly and then centrifuged at 17,000 × g for 15 min at 4 °C. The supernatant fraction of cell extract was snap-frozen in liquid nitrogen and stored in −80 °C freezer. Further sample processing, digestion, desalting, labeling and fractionation were performed as previously described.
nLC-MS/MS analysis. The TMT 10plex fractions were first analyzed as previously described. Briefly, the TMT 10plex fractions were analyzed sequentially on a Q Exactive HF Hybrid Quadrupole-Orbitrap Mass Spectrometer (Thermo Scientific) coupled to an UltiMate 3000 RSLCnano UHPLC system (Thermo Scientific) and EasySpray column (75 μm × 50 cm, PepMap RSLC C18 column, 2 μm, 100 Å, Thermo Scientific). The MS2 isolation window was set to 0.4 Da and the resolution set at 120,000. MS2 resolution was set at 60,000. The AGC targets for MS1 and MS2 were set at 3e^6 ions and 1e5 ions, respectively. The normalized collision energy was set at 32%. […] After the first analysis, the TMT labeled fractions were re-analyzed on the Q-Exactive HF using the same instrument settings and a target list generated from a theoretical trypsin digest of VHL. […] After the second analysis, two fractions were further analyzed using a targeted SIM/ddMS2 method on the Q-Exactive HF. […]
Peptide and protein identification. All the raw MS data files from the three analyses were merged and searched against the Uniprot-sprot-Trembl-Human-Canonical database by Maxquant software 1.5.3.30 for protein identification and TMT reporter ion quantitation. […] Quantified proteins were filtered if the absolute fold-change difference between the two DMSO replicates was ≥ 1.5.

T1 sequence (P40337 54-213): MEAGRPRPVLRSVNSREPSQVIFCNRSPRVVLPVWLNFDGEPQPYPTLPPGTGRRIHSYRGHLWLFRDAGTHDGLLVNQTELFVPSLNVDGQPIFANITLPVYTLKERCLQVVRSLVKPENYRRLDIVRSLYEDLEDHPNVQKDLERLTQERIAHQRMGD
T1 sequence (Q15369 17-112 partner limits assumed): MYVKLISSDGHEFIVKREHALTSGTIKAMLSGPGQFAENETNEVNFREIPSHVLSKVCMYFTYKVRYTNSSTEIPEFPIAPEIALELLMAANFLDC
T1 sequence (Q15370 1-104 partner limits assumed): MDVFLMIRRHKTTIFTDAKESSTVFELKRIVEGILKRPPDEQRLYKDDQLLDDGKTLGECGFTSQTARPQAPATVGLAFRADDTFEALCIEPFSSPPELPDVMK

For the compound `Cc1ncsc1-c1ccc(CNC(=O)[C@@H]2C[C@@H](O)CN2C(=O)[C@@H](NC(=O)COCCOCCOCCOCC(=O)N[C@H](C(=O)N2C[C@H](O)C[C@H]2C(=O)NCc2ccc(-c3scnc3C)cc2)C(C)(C)C)C(C)(C)C)cc1` [CM09, N ^1 ,N ^14-bis((S)-1-((2S,4R)-4-hydroxy-2-((4-(4-methylthiazol-5-yl)benzyl)carbamoyl)pyrrolidin-1-yl)-3,3-dimethyl-1-oxobutan-2-yl)-3,6,9,12-tetraoxatetradecanediamide], the “shift of VCB peak / ternary complex formation in SEC” value on V19CB is given as “formation of a ternary complex eluting at identical retention volume when compared to CM11”. The “average normalized ratio to DMSO, ALS2” value with Alsin (ALS2) is 0.98.
For `Cc1ncsc1-c1ccc(CNC(=O)[C@@H]2C[C@@H](O)CN2C(=O)[C@@H](NC(=O)COCCOCCOCCOCCOCC(=O)N[C@H](C(=O)N2C[C@H](O)C[C@H]2C(=O)NCc2ccc(-c3scnc3C)cc2)C(C)(C)C)C(C)(C)C)cc1` [CM10, N ^1 ,N ^17-bis((S)-1-((2S,4R)-4-hydroxy-2-((4-(4-methylthiazol-5-yl)benzyl)carbamoyl)pyrrolidin-1-yl)-3,3-dimethyl-1-oxobutan-2-yl)-3,6,9,12,15-pentaoxaheptadecanediamide], in that order: “formation of a ternary complex eluting at identical retention volume when compared to CM11” and 1.00.
`Cc1ncsc1-c1ccc(CNC(=O)[C@@H]2C[C@@H](O)CN2C(=O)[C@@H](NC(=O)COCCOCCOCCOCCOCCOCC(=O)N[C@H](C(=O)N2C[C@H](O)C[C@H]2C(=O)NCc2ccc(-c3scnc3C)cc2)C(C)(C)C)C(C)(C)C)cc1` [CM11, N ^1 ,N ^20-bis((S)-1-((2S,4R)-4-hydroxy-2-((4-(4-methylthiazol-5-yl)benzyl)carbamoyl)pyrrolidin-1-yl)-3,3-dimethyl-1-oxobutan-2-yl)-3,6,9,12,15,18-hexaoxaicosanediamide]: on V19CB (V19CB 50 µM), the “molecular weight of species in shifted SEC peak” value is ~ 90 kDa. Besides, the “average normalized ratio to DMSO, ALS2” value in the assay with Alsin (ALS2) is 0.98.
